Data published in patent US20190136188A1, “4HPR AND ITS USE IN THE CULTURING OF HEMATOPOIETIC STEM CELLS” (UNIVERSITY HEALTH NETWORK, priority 2016, published 2019).
“Also recorded” adds a separate entry of the source.

Experiments:
sorted HSC, MPP or GMP = experiment: Colony forming assay (CFC) in methylcellulose; format: cell-based, human; settings: for cloning efficiency of the HSC / relative number of colonies relative to vehicle control: 35 nM UM171 or 0.5 uM SR1, 10 days
Description: (A) Dose response of varying [4HPR] in CB at day 3 post-treatment showing 2 uM 4HPR gives the relative half maximal number of viable cells compared to control. All experiments following are at this 4HPR concentration unless otherwise indicated. […] (C) LC/MS was used to profile the ceramide (Cer), dihydroceramide (dhCer), sphingosine (sph), dihydrosphingosine (dhSph), S1P and dihydro-S1P (dhS1P) levels in lin− CB cells cultured for 8 days with control or 4HPR (n=2). […] (D) HSC, MPP, or GMP were sorted into methylcellulose for CFC assays in the presence of control or 4HPR and colonies were blindly scored following 10-11 days for (D) colonies/100 cells and ((E) colony distribution are shown (n=7). (F) Flow cytometry for erythroid (GlyA+) and monocytic (CD14+) markers in live cells from pooled CFC colonies were scored (n=6). (F) Relative number of colonies from CFC assays comparing the effect of 4HPR or ATRA (n=3) on sorted HSC, MPP or GMP. […]
(A) Representative flow cytometry analysis of the primitive hierarchy within the CD34+ fraction of day 8 cultured lin− CB cells after the indicated treatments for CD90 and CD45RA, n=4. B) The distribution of cultured CD34+CD90+CD45RA− (cHSC), CD34+CD90−CD45RA− (cMPP), and […] for the indicated conditions at day 8 of ex vivo culture following CD34 enrichment. Statistical significance assayed through unpaired t-test relative to vehicle control (Ctrl). The relative number of colonies resulting from (C) HSC or (D) MPP grown in methylcellulose CFC assays in the presence of vehicle control (−) or the indicated combination of 2 uM 4HPR, or 35 nM UM171 or 0.5 uM SR1 at 10 days. Statistical significance is calculated via unpaired t-test relative to ctrl (black) or to the presence of absence of 4HPR treatment for UM171 or SR1.
However, the functional consequence of 4HPR treatment on human cord blood primitive cells is unknown. A dose titration of 4HPR was performed on lineage-depleted CB (lin-CB) cells and 2 uM was calculated to give half maximal cell viability at 3 days post-treatment compared to vehicle control (ctrl), a concentration reported in cell lines to antagonize DEGS1 enzymatic function, and used for all subsequent experiments unless otherwise indicated (FIG. 1A). […] Next, we utilized the colony forming assay (CFC) for in vitro progenitor function to determine if 4HPR treatment alters functional output from isolated populations of CB HSPC. […] This is unsurprising as retinoic acid signaling is a potent differentiation signal in hematopoietic cells. Thus, 4HPR inhibition of sphingolipid homeostasis selectively enhances cloning efficiency in human HSC.
Given the CD34 compartment where functional HSC should reside following ex vivo expansion is critical to blood production, we asked if there were immunophenotypic alterations following 4HPR treatment. StemRegenin-1 (SR1) or UM171 are two molecules whose action on CB has been reported to expand CD34+ cells dramatically and lead to increase reconstitution in xenotransplantation (Fares, et al Science, 2014: Boitano, Science, 2010). We sought to ask if limiting CD34+ expansion with 4HPR treatment is synergistic with these known agonists of CB ex vivo expansion. Lin− CB were cultured with these 3 small molecules alone or in combination for 8 days and the CD34 compartment was isolated and analyzed by flow cytometry further with CD90 and CD45RA to look at immunophenotypic cultured HSC (cHSC), MPP (cMPP) and committed progenitors (cProg). These populations were sorted from lin-CB at […] following expansion and transplanted into NSG mice for 16 weeks to ascertain that cProg cells are committed progenitors, while cHSC and cMPP retain multipotency following culture (FIG. 8A, B). […]

sorted HSC and MPP = experiment: 8 day ex vivo expansion of sorted HSC and MPP, CD34+ compartment by flow cytometry; format: cell-based, human; settings: D8 after ex vivo expansion
Excerpt: B) Lymphoid and C) myeloid engraftment from (A) at 16 weeks post-transplantion. […] F) Flow cytometry plots showing the CD34+ population from 8 day cultured HSC.
Given the CD34 compartment where functional HSC should reside following ex vivo expansion is critical to blood production, we asked if there were immunophenotypic alterations following 4HPR treatment. StemRegenin-1 (SR1) or UM171 are two molecules whose action on CB has been reported to expand CD34+ cells dramatically and lead to increase reconstitution in xenotransplantation (Fares, et al Science, 2014: Boitano, Science, 2010). We sought to ask if limiting CD34+ expansion with 4HPR treatment is synergistic with these known agonists of CB ex vivo expansion. Lin− CB were cultured with these 3 small molecules alone or in combination for 8 days and the CD34 compartment was isolated and analyzed by flow cytometry further with CD90 and CD45RA to look at immunophenotypic cultured HSC (cHSC), MPP (cMPP) and committed progenitors (cProg). […] To further elucidate the specific action of 4HPR on HSC over MPP and compare this to UM171 and SR1, sorted HSC and MPP were put into ex vivo expansion conditions for 8 days with the same treatments as in FIG. 7A, B and their growth and CD34+ compartment were monitored by flow cytometry (FIG. 8D-F). […]

Row | Compound | cloning efficiency of the HSC (sorted HSC, MPP or GMP) | relative number of colonies relative to vehicle control (sorted HSC, MPP or GMP) | primitive CD34+ cells from sorted HSC and MPP (sorted HSC and MPP) | colony output (sorted HSC, MPP or GMP; ATRA treatment, HSC, MPP, GMP)
1 | Cn1nnc(-c2ccc3c(c2)[nH]c2nc(Cc4ccccc4)nc(N[C@H]4CC[C@H](N)CC4)c23)n1 [UM171, (1r,4r)-N1-(2-benzyl-7-(2-methyl-2H-tetrazol-5-yl)-9H-pyrimido[4,5-b]indol-4-yl)cyclohexane-1,4-diamine] | both decreased cloning efficiency of the HSC | Neither UM171 nor SR1 altered relative number of colonies | promote CD34+ expansion more from MPP than HSC; also recorded: dramatically increases primitive CD34+ from both HSC and MPP | –
2 | CC(C)n1cnc2c(NCCc3ccc(O)cc3)nc(-c3csc4ccccc34)nc21 [SR1, StemRegenin-1] | both decreased cloning efficiency of the HSC | Neither UM171 nor SR1 altered relative number of colonies | promote CD34+ expansion more from MPP than HSC; also recorded: occurs primarily in sorted MPP, not HSC | –
3 | CC1=C(/C=C/C(C)=C/C=C/C(C)=C/C(=O)O)C(C)(C)CCC1 [ATRA, all-trans retinoic acid] | – | – | – | decreases colony output from all HSPC populations
